According to US9878054B2, “Polypeptide and lipophilic moiety conjugate compositions, formulations, and uses related thereto” (Tufts Medical Center, Inc., priority 2012, dated 2018):
Where a SMILES comes first, the peptide text is derived from it. The star is where a group is joined. Palmitoyl = CCCCCCCCCCCCCCCC(=O)*

Legend:
[1] = test system: guinea pig carotid artery thrombosis; assay: Guinea pig carotid artery FeCl3 injury arterial thrombosis model; assay type: in vivo
Procedure: A carotid artery FeCl3 injury model was used in guinea pigs to assess the anti-thrombotic efficacy of PZ-128 micelles within 15 min of initiation of drug administration. FeCl3 denudes the artery and exposes type I collagen and other subendothelial matrix proteins to initiate platelet-dependent thrombosis. Guinea pigs received 10 min intravenous infusions of PZ-128 micelles, 5 min prior to carotid artery injury. […] Mean occlusion times increased by 4-fold to 40 min at doses above 0.05 mg/kg PZ-128.
Male Hartley guinea pigs (150˜220 g) were purchased from Charles River Laboratories. A 0.61 mm-diameter catheter was inserted into the left jugular vein of anesthetized animals for administration of infusions of 5% USP dextrose vehicle or PZ-128 micelles. A 0.5 V-Doppler probe (Transonic Systems, Ithaca, N.Y.) was placed around the right carotid artery to record blood flow. A range of doses of PZ-128 micelles from 0.05 to 1.6 mg/kg in 0.9 ml volumes were delivered at an injection rate of 0.09 ml/min by a Harvard syringe pump. Five minutes after the infusion ended, arterial thrombosis was induced by placing a 5×5 mm^2 piece of filter paper soaked in freshly made 20% FeCl3 solution on the right carotid artery 5 mm distal to the probe for 20 minutes. […] To examine possible synergistic effects of PZ-128 micelles and P2Y12-ADP receptor inhibition, 1 mg/kg clopidogrel was administered by oral gavage 4 hours prior to FeCl3 injury. In these synergy experiments, the maximum endpoint was set at 90 minutes for occlusion time.

[2] = test system: PAR1; assay: Guinea pig ex vivo platelet aggregation to SFLLRN after iv infusion; assay type: in vivo; conditions: 3 and 6 mg/kg, 10 min iv infusion, 15 min time point, 2.5 μM SFLLRN
Procedure: (§1) PZ-128 or 5% dextrose USP vehicle was infused for 10 min into the jugular vein of male and female guinea pigs (0.55-0.65 kg). A-C, At the 15 min time point, whole blood was collected by cardiac puncture in 100 μg/ml PPACK/4% Na-citrate (final) anti-coagulant and platelet rich plasma (PRP) prepared and aggregation measurements were performed. […] B-C, PRP obtained at the 15 min time point after infusion with vehicle, 3 mg/kg PZ-128 or 6 mg/kg PZ128 was challenged with 2.5 μM SFLLRN, 20 μM ADP or 20 μM thromboxane mimetic, U46119. Individual data points (n=3) are overlayed on bar graphs depicting mean±SD. […] Data in B-D were analyzed by the non-parametric Kruskal-Wallis test with the Dunn's multiple pairwise comparison post-test.
(§2) PZ-128 micelles were delivered by internal jugular vein infusions over 10 min.
(§3) Guinea pigs weighing 600-650 g were used for platelet aggregation experiments. PZ-128 micelles (3 or 6 mg/kg) were administered by a 10 min intravenous infusion, and blood was collected by cardiac puncture into sodium citrate (0.4% vol/vol final) 5 minutes after cessation of the infusion. PRP was prepared and PPACK added to a final concentration of 100 μg/ml. PRP was calcified with 2.5 mM CaCl2 and aggregation was performed as described above.

[3] = Bleeding time, platelet counts and hematocrit in baboons; assay type: in vivo; conditions: baboon; all doses tested (1-6 mg/kg)
Procedure: Whether PZ-128 had any adverse effects on hemostasis or coagulation indices in baboons and monkeys was evaluated. At all doses tested (1-6 mg/kg), PZ-128 micelles had no effect on bleeding time, platelet counts or hematocrit in baboons (Table 2).
Non-terminal thrombosis and platelet aggregation studies were performed on 12 healthy male baboons (Papio anubis) weighing 9-12 kg at the Oregon National Primate Research Center (ONPRC). […] Whole blood (10 ml) was collected into PPACK at a final concentration of 100 μg/ml just prior to infusion (baseline) and 15 min to 24 h after the PZ-128 micelle infusion was terminated. Platelet counts and hematocrit were measured immediately. PRP was prepared from whole blood and platelet aggregation performed as described above. Bleeding time (BT) measurements were performed on the shaved volar surface of the forearm using the standard template method.

[4] = test system: baboon arterial thrombosis (platelet deposition); assay: Baboon arterial-venous shunt Dacron graft thrombosis; assay type: in vivo, baboon (Papio anubis)
Procedure: 10-14 kg baboons were administered 3 mg/kg or 6 mg/kg PZ-128 by a 45 min iv infusion versus 5% dextrose vehicle (n=2-6). A, Net platelet accumulation was measured during the first 60 minutes of thrombus growth on a femoral arterio-venous Dacron graft (4 mm ID) inserted between silicone rubber tubing segments comprising a high-flow shunt. Blood flow was maintained at 100 ml/min by distal clamping the shunt. Autologous platelets were radiolabeled with indium-111 (1 mCi), and reinjected into the animals before thrombosis experiments. B, Deposition of platelets (mean±SD) was quantified in the head plus tail regions of the thrombus by 111Indium-labeled platelet imaging with 5-minute data acquisition periods starting at 60 min after initiation of the infusion. Statistical significance was determined using a variance stabilizing LN (natural log) transformation and a repeated measures mixed effects model with an autoregressive covariance structure. Subjects (individual baboons) were included in the model as a random effect. P=0.606 for 3 mg/kg vs vehicle and P=0.0028 for 6 mg/kg vs vehicle.
Baboon arterial thrombosis experiments were conducted to determine whether the PZ-128 micelles had the potential to inhibit arterial thrombosis in primates. An arterial-venous shunt equipped with a Dacron vascular graft with an internal lumen diameter of 4 mm at a high flow rate of 100 ml/min was used. Thrombogenesis was assessed by measuring platelet content of the head and tail regions of the developing thrombus (FIG. 4A) and quantified by ^111Indium-labeled platelet imaging over 60 min. PZ-128 micelles at a dose of 1 mg/kg had no effect on platelet-thrombus deposition in the baboon.
Non-terminal thrombosis and platelet aggregation studies were performed on 12 healthy male baboons (Papio anubis) weighing 9-12 kg at the Oregon National Primate Research Center (ONPRC). […] Platelet counts and hematocrit were measured immediately. […]

[5] = test system: human platelets (Ristocetin); assay: Human platelet aggregation, ristocetin; assay type: cell-based; conditions: 1 mg/ml Ristocetin
Procedure: A, Depiction of the mechanism of action of the cell-penetrating PZ-128 pepducin compound targeting the third intracellular loop (red) of PAR1. B, The NMR structure of PZ-128 was determined by simulated annealing methods using 210 distance restraints and included restraints to the proximal 3 hydrocarbons of the lipid. […] D, PZ-128 inhibits PAR1-dependent platelet aggregation. Gel filtered human platelets were treated with various concentrations of PZ-128 and then challenged with the PAR1 agonist SFLLRN (2.5 μM), 20 μM ADP, 200 μM AYPGKF or 1 mg/ml Ristocetin. E, Human platelets were treated with 3 μM PZ-128, 3 μM RWJ-56110, or 5% dextrose vehicle before the addition of various concentrations of thrombin (n=3-5).
PZ-128 also markedly right-shifted thrombin-induced aggregation by 5-fold. By comparison, the small molecule RWJ-56110 which antagonizes PAR1 at the extracellular ligand-binding site gave a 2-fold right shift in the thrombin activation curve of human platelets.
Whole blood from healthy donors was collected into a 30 ml syringe containing sodium citrate (0.4% vol/vol final). Platelets were isolated from platelet rich plasma (PRP) using Sepharose 2B columns in modified PIPES buffer.

[6] = test system: guinea pig platelets (thromboxane mimetic U46119); assay: Guinea pig ex vivo platelet aggregation to thromboxane mimetic U46119 after iv infusion; assay type: in vivo; conditions: 3 or 6 mg/kg iv, 20 μM U46119
Procedure: as §1, §2, §3

## CCCCCCCCCCCCCCCC(=O)N[C@@H](CCCCN)C(=O)N[C@@H](CCCCN)C(=O)N[C@@H](CO)C(=O)N[C@@H](CCCNC(=N)N)C(=O)N[C@@H](C)C(=O)N[C@@H](CC(C)C)C(=O)N[C@@H](Cc1ccccc1)C(N)=O [PZ-128, palmitate-KKSRALF-NH2] (Palmitoyl-KKSRALF-NH2)
[1]; 10 min iv infusion 5 min prior to FeCl3 carotid injury
  EC50, protection against arterial occlusion: 0.075 mg/kg
[1]; doses above 0.05 mg/kg
  Increase of mean occlusion time: 4 fold
  Mean occlusion time: 40 min
[1]; sub-therapeutic dose alone (PZ-128 0.05 mg/kg; clopidogrel 1 mg/kg PO)
  Protection against arterial occlusion when used alone: non-significant protection
[2]
  Inhibition of ex vivo platelet aggregation to SFLLRN: significant, dose-dependent inhibition
[3]
  Effect on bleeding time, platelet counts or hematocrit: no effect
[4]; 1 mg/kg
  Effect on platelet-thrombus deposition: no effect
[4]; 3 mg/kg iv infusion, P=0.606
  Effect against platelet arterial thrombus formation vs vehicle: not significant
[4]; 6 mg/kg iv infusion, P=0.0028
  Effect against platelet arterial thrombus formation vs vehicle: significant protective effect
[5]
  Inhibitory activity against ristocetin aggregation: no inhibitory activity
[6]
  Effect on ex vivo aggregation to thromboxane mimetic U46119: no effect
